Like-named read-outs stand apart in the source and are kept apart here. Blank lines part the entries; values can stand above or below the molecule they belong to.
How the values were obtained:
T. cruzi amastigotes [1] = experiment: Activity against T. cruzi amastigotes in culture; assay type: cell-based, Trypanosoma cruzi; conditions: for fold increase in potency compared with compound 12: T. cruzi cultures; for EC50: Trypanosoma cruzi, read-out: T. cruzi EC50(nM), T. cruzi amastigotes in culture; for fold drop in potency on replacement of the aniline moiety: versus amino compound (compound 2)
T. cruzi = conditions: ref previous studies; cited from earlier work
[2] = biological target: T. cruzi sterol 14α-demethylase (CYP51) (Trypanosoma cruzi, UniProt Q7Z1V1); experiment: Spectral response; conditions: P450 2.2 μM; titration range 0.4-7.6 μM
T. cruzi sterol 14α-demethylase (CYP51), sequence (Q7Z1V1 whole entry): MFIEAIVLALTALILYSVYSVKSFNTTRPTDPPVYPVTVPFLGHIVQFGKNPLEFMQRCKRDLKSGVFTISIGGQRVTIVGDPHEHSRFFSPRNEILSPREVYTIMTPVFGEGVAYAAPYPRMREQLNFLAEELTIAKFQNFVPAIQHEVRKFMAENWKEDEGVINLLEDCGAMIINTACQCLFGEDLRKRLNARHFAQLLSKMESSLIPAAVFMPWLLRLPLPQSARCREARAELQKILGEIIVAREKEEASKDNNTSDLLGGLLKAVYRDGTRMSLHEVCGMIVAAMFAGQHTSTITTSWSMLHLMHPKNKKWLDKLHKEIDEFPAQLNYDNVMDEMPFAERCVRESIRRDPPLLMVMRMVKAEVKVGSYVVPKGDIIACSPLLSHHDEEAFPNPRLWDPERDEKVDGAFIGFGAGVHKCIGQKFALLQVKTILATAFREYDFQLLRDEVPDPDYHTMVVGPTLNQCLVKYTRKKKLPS

T. cruzi amastigotes [3] = conditions: read-out: EC50 against T.cruzi in culture; cited from earlier work

Compound: Nc1cc(-c2ccccc2)ccc1Cn1cncc1CNc1ccc(-c2nc3ccccc3s2)c(-c2ccccc2)c1 [Compound 2]
fold increase in potency compared with compound 12 (T. cruzi amastigotes [1]; versus compound 12): 20 fold
efficacy in the acute model of the disease (T. cruzi): highly efficacious

Compound: Nc1ccc(-c2cc(NCc3cncn3Cc3ccc(-c4ccccc4)cc3)ccc2-c2nc3ccccc3s2)cc1 [Compound 12k]
fold increase in potency compared with compound 12 (T. cruzi amastigotes [1]; versus compound 12): > 10 fold

EC50 (T. cruzi amastigotes [1]): < 20 nM
Compound: Fc1cc(-c2ccccc2)ccc1Cn1cncc1CNc1ccc(F)c(-c2ccccc2)c1 [Compound 24a]

Compound: Fc1ccc(NCc2cncn2Cc2ccc(-c3ccccc3)cc2F)cc1 [Compound 24b]
fold drop in potency compared with compound 12 (T. cruzi amastigotes [1]; against T. cruzi, versus compound 12): less than 4 fold

Compound: COc1cc(-c2ccccc2)ccc1Cn1cncc1CNc1ccc(Cl)c(-c2ccccc2)c1 [Compound 24n]
fold drop in potency on replacement of the aniline moiety (T. cruzi amastigotes [1]): > 27 fold

Compound: Oc1cc(-c2ccccc2)ccc1Cn1cncc1CNc1ccc(Cl)c(-c2ccccc2)c1 [Compound 24o]
fold drop in potency on replacement of the aniline moiety (T. cruzi amastigotes [1]): > 27 fold

Compound: O=C(O)c1cc(-c2ccccc2)ccc1Cn1cncc1CNc1ccc(-c2nc3ccccc3s2)c(-c2ccccc2)c1 [Compound 24q]
fold drop in potency on replacement of the aniline moiety (T. cruzi amastigotes [1]): > 27 fold

binding to the haem moiety in the CYP51 active site (spectral type) [2]: Soret Type II binding spectra
Compound: COc1ccc(NCc2cncn2Cc2ccc(-c3ccccc3)cc2N)nc1-c1ccccc1 [Compound 26c]

EC50 (T. cruzi amastigotes [1]): < 10 nM
Compound: Nc1cc(-c2ccccc2)ccc1Cn1cncc1CNc1ccc(Cl)c(Cl)c1 [Compound 36f]

EC50 (T. cruzi amastigotes [1]): < 10 nM
Compound: Nc1cc(-c2ccccc2)ccc1Cn1cncc1CNc1ccc(Cl)c(-n2ccnc2)c1 [Compound 36h]

Compound: Cc1cc(NCc2cncn2Cc2ccc(-c3ccccc3)cc2N)ccc1Cl [Compound 36j]
activity against T.cruzi amastigotes (in words) (T. cruzi amastigotes [1]): excellent activity

Compound: Nc1cc(-c2ccccc2)ccc1Cn1cncc1CNc1ccc(Cl)cc1 [Compound 36k]
activity against T.cruzi amastigotes (in words) (T. cruzi amastigotes [1]): excellent activity

Compound: Nc1cc(-c2ccccc2)ccc1Cn1cncc1CNc1ccc(F)cc1 [Compound 36p]
activity against T.cruzi amastigotes (in words) (T. cruzi amastigotes [1]): excellent activity

Compound: CC[C@@H]([C@H](C)O)n1ncn(-c2ccc(N3CCN(c4ccc(OC[C@@H]5CO[C@@](Cn6cncn6)(c6ccc(F)cc6F)C5)cc4)CC3)cc2)c1=O [posaconazole]
EC50 (T. cruzi amastigotes [3]): < 1 nM

Source: article PMC4111244 (Bioorganic & medicinal chemistry letters, 2013)
